Tested on: weaned pigs
Assay: Preclinical study of the effects of azaperone administered via drinking water: therapeutic usage of antibiotics
Type: in vivo
Details: for number of pigs treated (therapeutic use of antibiotics): 6 mg azaperone per liter drinking water for first 3 days
Protocol: The study was performed in weaned pigs to investigate the effect of azaperone that was continuously orally administered via drinking water on postweaning diarrhoea and associated usage of antibiotics, behaviour, feed conversion, growth and homogeneity of growth. Groups of approximately 250 pigs were enrolled in the study starting from the moment they were weaned. The pigs were housed according to everyday farming conditions in a conventional pig farm. All pigs were housed in similar buildings. Each group was housed in 2 compartments, gilts and barrows were housed in separate compartments. Pigs were kept in pens of approximately 12 individuals each. After weaning, the piglets were housed in continuous artificial light for the first 48 hours. Afterwards, pigs were housed in continuous darkness for the further duration of the study, except during observations (twice a day). During the course of the study, pigs were not vaccinated. A metaphylactic colistine treatment via drinking water was applied in each group starting from the fifth day after weaning. Treatment continued for seven days. Pigs were fed ad libitum. Troughs were filled automatically with a computerized system that records the supplied weight of feed per pen. During the first ten days of the nursery period, pigs were fed a pelleted weaner feed which had also been available to the piglets in the farrowing unit. Between the 10th and 15th day at the nursery, the weaner feed was gradually replaced by grower pellets which have been given until the 35th day. Finally a switch was made between the 35th and the 40th day from grower pellets to starter pellets. Tap water was available during the whole period of the study and was supplied via a water nipple in the feeding trough. The drinking water comprising azaperone was obtained by diluting Stresnil™ injection in water to obtain a concentration of 6 mg azaperone per liter drinking water. A primary dilution was prepared by diluting 90 ml of Stresnil™ 4% injectable solution with tap water to obtain 6 liters of preparation. This primary dilution was linked for 24 hours with an automatic dosing system which continuously diluted the preparation in the drinking water at a rate of 1 to 100. One preparation of the primary dilution was sufficient to treat 600 liters of drinking water which exceeded the anticipated daily consumed volume of water by the pigs in one compartment. The two following days, a new primary dilution was made fresh each morning and linked to the automatic dosing system for 24 hours. This study was a controlled parallel study with 4 sequential groups of approximately 250 weaned pigs each. The first and third group were treated with azaperone via the drinking water for 3 consecutive days. The second and fourth group were control groups treated with placebo (plain drinking water). [table] On day one of the test period, water containing 6 mg azaperone per liter or placebo, was made available. Starting from the fourth day, the drinking water no longer contained azaperone. All pigs followed the normal procedures for further fattening. No pigs were brought to the slaughterhouse during the study (3 days dosing and 39 days follow-up). In order to assess the effect of the oral azaperone administration on the onset of postweaning diarrhoea and concomittant therapeutic usage of antibiotics, the occurrence of diarrhoea was followed in groups 1 to 4 and recorded daily by the Principal Investigator. All individual pens were checked by the Principal Investigator and a diarrhoea score was noted as follows: Any use of antibiotics in groups 1 to 4 was recorded the first three weeks after weaning and grouping of the animals. The decision to treat an animal with antibiotics was made by the Principal Investigator according to everyday practice on that farm.

[1] = during the nursery period, azaperone-treated group

## O=C(CCCN1CCN(c2ccccn2)CC1)c1ccc(F)cc1 [azaperone]
6 mg/liter water during first three days of 42 day test period
  usage of antibiotics compared to placebo-treated groups: significant reduction of the usage of antibiotics
6 mg/liter water during first three days of 42 day test period, vs. 29 in placebo
  number of piglets treated with antibiotics (conclusion): 11
6 mg/liter water during first three days of 42 day test period, vs. 33 in placebo
  number of individual antibiotic treatments (conclusion): 13
[1]
  number of ampicilline injections: 1
  number of enrofloxacine injections: 4
  number of oxytetracycline injections: 2
  number of piglets treated with antibiotics for curative reasons: 7 piglets
  total number of individual injections with antibiotics: 7 injections
Week 1 after weaning
  number of pigs treated (therapeutic use of antibiotics): 4
Week 2 after weaning
  number of pigs treated (therapeutic use of antibiotics): 3
Week 3 after weaning
  number of pigs treated (therapeutic use of antibiotics): 0

— patent US9049874B2, “Use of azaperone for reducing antibiotic usage” (Elanco Animal Health Ireland Limited, priority 2008, dated 2015)
